Patent US11339419B2, “Scavenger protein(s) for improved preservation of analyte detection sensor(s) and method(s) of use thereof” (Siemens Healthcare Diagnostics Inc., priority 2017, dated 2022)
Values joined by “and” are separate entries in the source; they are usually repeats but may differ in a detail not shown here. Identical values can stand only once.

Test system: sarcosine oxidase (Toyobo)
Test: Toyobo Sarcosine Oxidase Enzyme Absorbance with BSA and MIT
Format: biochemical
Conditions: for Sarcosine Oxidase Enzyme Absorbance, MEAN of 7-11 / Sarcosine Oxidase Enzyme Absorbance, replicates 7-11 / Sarcosine Oxidase Enzyme Absorbance, MEAN of 1-5 / Sarcosine Oxidase Enzyme Absorbance, solutions 1-5: 37° C.
[1] = Day 0, 5 mg/mL BSA only, no MIT (50 ppm MIT row)
[2] = Day 0, 5 mg/mL BSA only, no MIT (100 ppm MIT row)
[3] = Day 0, 25 mg/mL BSA only, no MIT (50 ppm MIT row)
[4] = Day 0, 25 mg/mL BSA only, no MIT (100 ppm MIT row)
[5] = Day 0, 50 mg/mL BSA only, no MIT (50 ppm MIT row)
[6] = Day 0, 50 mg/mL BSA only, no MIT (100 ppm MIT row)
[7] = Day 0, 50 ppm MIT, 25 mg/mL BSA
[8] = Day 0, 50 ppm MIT, 50 mg/mL BSA
[9] = Day 4, 5 mg/mL BSA only, no MIT (50 ppm MIT row)
[10] = Day 4, 5 mg/mL BSA only, no MIT (100 ppm MIT row)
[11] = Day 4, 25 mg/mL BSA only, no MIT (50 ppm MIT row)
[12] = Day 4, 25 mg/mL BSA only, no MIT (100 ppm MIT row)
[13] = Day 4, 50 mg/mL BSA only, no MIT (50 ppm MIT row)
[14] = Day 4, 50 mg/mL BSA only, no MIT (100 ppm MIT row)
[15] = Day 14, 5 mg/mL BSA only, no MIT (50 ppm MIT row)
[16] = Day 14, 5 mg/mL BSA only, no MIT (100 ppm MIT row)
[17] = Day 14, 25 mg/mL BSA only, no MIT (50 ppm MIT row)
[18] = Day 14, 25 mg/mL BSA only, no MIT (100 ppm MIT row)
[19] = Day 14, 50 mg/mL BSA only, no MIT (50 ppm MIT row)
[20] = Day 14, 50 mg/mL BSA only, no MIT (100 ppm MIT row)

Method: Tables 1-4 depict aqueous solutions comprising varying concentrations of BSA (at concentrations of 0 mg/mL, 5 mg/mL, 25 mg/mL, and 50 mg/mL), varying concentrations of MIT (at concentrations of 50 parts per million and 100 parts per million) or Proclin™ 300 (at concentrations of 0.7% and 1.4%) biocides over a particular time period (measurements were taken at days 0, 4, and 14 after exposure of the enzyme(s) to the aqueous solutions) and the associated enzyme absorbance measurements for sarcosine oxidase (commercially offered for sale by BBI Solutions and Toyobo). Absorbance measurements of the sarcosine oxidase enzyme(s) were taken via spectrophotometer for each aqueous solution (represented as columns 1-5 in Tables 1-4—column 6 is a blank), the absorbance being directly proportional to the enzyme activity being measured-which for Tables 1-4 is sarcosine oxidase enzyme activity. Accordingly, the higher the absorbance measurement, the higher the enzyme activity of sarcosine oxidase. Columns 7-11 represent five replicate readings in which the aqueous solution only contains BSA (i.e., there is no biocide(s) present in the aqueous solution). In addition, the mean values, standard deviations, and coefficients of variation are also presented for the enzyme activity/absorbance of each aqueous solution. All measurements were taken at 37° C.
As depicted below in Table 2, sarcosine oxidase (commercially offered for sale by Toyobo) enzyme activity is measured against various concentrations of MIT (biocide) and BSA (scavenger protein) over a period of 14 days (with absorbance measurements taken at 0, 4, and 14 days) for five different aqueous solutions (represented as columns 1-5-column 6 is a blank).

bovine serum albumin [BSA]
Sarcosine Oxidase Enzyme Absorbance, MEAN of 7-11 [1]: 1.41
Sarcosine Oxidase Enzyme Absorbance, replicates 7-11 [1]: 1.444 and 1.45 and 1.459 and 1.485 and 1.463
Sarcosine Oxidase Enzyme Absorbance, MEAN of 7-11 [2]: 1.39
Sarcosine Oxidase Enzyme Absorbance, replicates 7-11 [2]: 1.459 and 1.421 and 1.427 and 1.439 and 1.436
Sarcosine Oxidase Enzyme Absorbance, MEAN of 7-11 [3]: 1.40
Sarcosine Oxidase Enzyme Absorbance, replicates 7-11 [3]: 1.448 and 1.453 and 1.45 and 1.442 and 1.444
Sarcosine Oxidase Enzyme Absorbance, MEAN of 7-11 [4]: 1.38
Sarcosine Oxidase Enzyme Absorbance, replicates 7-11 [4]: 1.447 and 1.422 and 1.418 and 1.443 and 1.413
Sarcosine Oxidase Enzyme Absorbance, MEAN of 7-11 [5]: 1.35
Sarcosine Oxidase Enzyme Absorbance, replicates 7-11 [5]: 1.387 and 1.402 and 1.388 and 1.408 and 1.406
Sarcosine Oxidase Enzyme Absorbance, MEAN of 7-11 [6]: 1.38
Sarcosine Oxidase Enzyme Absorbance, replicates 7-11 [6]: 1.437 and 1.434 and 1.424 and 1.423 and 1.416
% Bias (Day 0, 50 ppm MIT vs no MIT, 5 mg/mL BSA): −0.3%
% Bias (Day 0, 50 ppm MIT vs no MIT, 25 mg/mL BSA): −1.0%
% Bias (Day 0, 50 ppm MIT vs no MIT, 50 mg/mL BSA): 2.4%
Sarcosine Oxidase Enzyme Absorbance, MEAN of 1-5 (Day 0, 50 ppm MIT, 5 mg/mL BSA): 1.41
Sarcosine Oxidase Enzyme Absorbance, solutions 1-5 (Day 0, 50 ppm MIT, 5 mg/mL BSA): 1.445 and 1.446 and 1.443 and 1.456 and 1.457
Sarcosine Oxidase Enzyme Absorbance, MEAN of 1-5 [7]: 1.39
Sarcosine Oxidase Enzyme Absorbance, solutions 1-5 [7]: 1.432 and 1.423 and 1.425 and 1.431 and 1.427
Sarcosine Oxidase Enzyme Absorbance, MEAN of 1-5 [8]: 1.39
Sarcosine Oxidase Enzyme Absorbance, solutions 1-5 [8]: 1.439 and 1.435 and 1.441
% Bias (Day 0, 100 ppm MIT vs no MIT, 5 mg/mL BSA): 0.3%
% Bias (Day 0, 100 ppm MIT vs no MIT, 25 mg/mL BSA): −0.7%
% Bias (Day 0, 100 ppm MIT vs no MIT, 50 mg/mL BSA): −1.1%
Sarcosine Oxidase Enzyme Absorbance, MEAN of 1-5 (Day 0, 100 ppm MIT, 5 mg/mL BSA): 1.39
Sarcosine Oxidase Enzyme Absorbance, MEAN of 1-5 (Day 0, 100 ppm MIT, 25 mg/mL BSA): 1.37
Sarcosine Oxidase Enzyme Absorbance, MEAN of 1-5 (Day 0, 100 ppm MIT, 50 mg/mL BSA): 1.37
Sarcosine Oxidase Enzyme Absorbance, MEAN of 7-11 [9]: 0.10
Sarcosine Oxidase Enzyme Absorbance, replicates 7-11 [9]: 0.251 and 0.247 and 0.255 and 0.261 and 0.267
Sarcosine Oxidase Enzyme Absorbance, MEAN of 7-11 [10]: 0.79
Sarcosine Oxidase Enzyme Absorbance, replicates 7-11 [10]: 0.933 and 0.941 and 0.967 and 0.963
Sarcosine Oxidase Enzyme Absorbance, MEAN of 7-11 [11]: 1.22
Sarcosine Oxidase Enzyme Absorbance, replicates 7-11 [11]: 1.388 and 1.399 and 1.382 and 1.357 and 1.362
Sarcosine Oxidase Enzyme Absorbance, MEAN of 7-11 [12]: 1.23
Sarcosine Oxidase Enzyme Absorbance, replicates 7-11 [12]: 1.366 and 1.381 and 1.402 and 1.382 and 1.388
Sarcosine Oxidase Enzyme Absorbance, MEAN of 7-11 [13]: 1.24
Sarcosine Oxidase Enzyme Absorbance, replicates 7-11 [13]: 1.386 and 1.428 and 1.403 and 1.415 and 1.372
Sarcosine Oxidase Enzyme Absorbance, MEAN of 7-11 [14]: 1.24
Sarcosine Oxidase Enzyme Absorbance, replicates 7-11 [14]: 1.384 and 1.407 and 1.4 and 1.389 and 1.388
% Bias (Day 4, 50 ppm MIT vs no MIT, 5 mg/mL BSA): 775.9%
% Bias (Day 4, 50 ppm MIT vs no MIT, 25 mg/mL BSA): 11.9%
% Bias (Day 4, 50 ppm MIT vs no MIT, 50 mg/mL BSA): 12.4%
Sarcosine Oxidase Enzyme Absorbance, MEAN of 1-5 (Day 4, 50 ppm MIT, 5 mg/mL BSA): 0.86
Sarcosine Oxidase Enzyme Absorbance, MEAN of 1-5 (Day 4, 50 ppm MIT, 25 mg/mL BSA): 1.37
Sarcosine Oxidase Enzyme Absorbance, MEAN of 1-5 (Day 4, 50 ppm MIT, 50 mg/mL BSA): 1.40
% Bias (Day 4, 100 ppm MIT vs no MIT, 5 mg/mL BSA): 16.5%
% Bias (Day 4, 100 ppm MIT vs no MIT, 25 mg/mL BSA): 10.4%
% Bias (Day 4, 100 ppm MIT vs no MIT, 50 mg/mL BSA): 11.1%
Sarcosine Oxidase Enzyme Absorbance, MEAN of 1-5 (Day 4, 100 ppm MIT, 5 mg/mL BSA): 0.92
Sarcosine Oxidase Enzyme Absorbance, MEAN of 1-5 (Day 4, 100 ppm MIT, 25 mg/mL BSA): 1.35
Sarcosine Oxidase Enzyme Absorbance, MEAN of 1-5 (Day 4, 100 ppm MIT, 50 mg/mL BSA): 1.37
Sarcosine Oxidase Enzyme Absorbance, MEAN of 7-11 [15]: 0.29
Sarcosine Oxidase Enzyme Absorbance, replicates 7-11 [15]: 0.329 and 0.33 and 0.348 and 0.327 and 0.333
Sarcosine Oxidase Enzyme Absorbance, MEAN of 7-11 [16]: 0.31
Sarcosine Oxidase Enzyme Absorbance, replicates 7-11 [16]: 0.342 and 0.353 and 0.351 and 0.382 and 0.368
Sarcosine Oxidase Enzyme Absorbance, MEAN of 7-11 [17]: 1.36
Sarcosine Oxidase Enzyme Absorbance, replicates 7-11 [17]: 1.406 and 1.41 and 1.429 and 1.404 and 1.403
Sarcosine Oxidase Enzyme Absorbance, MEAN of 7-11 [18]: 1.41
Sarcosine Oxidase Enzyme Absorbance, replicates 7-11 [18]: 1.443 and 1.445 and 1.46 and 1.471 and 1.461
Sarcosine Oxidase Enzyme Absorbance, MEAN of 7-11 [19]: 1.41
Sarcosine Oxidase Enzyme Absorbance, replicates 7-11 [19]: 1.436 and 1.456 and 1.449 and 1.465 and 1.488
Sarcosine Oxidase Enzyme Absorbance, MEAN of 7-11 [20]: 1.42
Sarcosine Oxidase Enzyme Absorbance, replicates 7-11 [20]: 1.476 and 1.446 and 1.464 and 1.474 and 1.469
% Bias (Day 14, 50 ppm MIT vs no MIT, 5 mg/mL BSA): 0.3%
% Bias (Day 14, 50 ppm MIT vs no MIT, 25 mg/mL BSA): 1.6%
% Bias (Day 14, 50 ppm MIT vs no MIT, 50 mg/mL BSA): 0.7%
Sarcosine Oxidase Enzyme Absorbance, MEAN of 1-5 (Day 14, 50 ppm MIT, 5 mg/mL BSA): 0.29
Sarcosine Oxidase Enzyme Absorbance, MEAN of 1-5 (Day 14, 50 ppm MIT, 25 mg/mL BSA): 1.39
Sarcosine Oxidase Enzyme Absorbance, MEAN of 1-5 (Day 14, 50 ppm MIT, 50 mg/mL BSA): 1.42
% Bias (Day 14, 100 ppm MIT vs no MIT, 5 mg/mL BSA): −0.8%
